Assay results as given in patent publication US10231980B2, “Cortexolone 17alpha-benzoate for use in the treatment of tumours” (COSMO TECHNOLOGIES LTD., priority 2014, dated 2019).
pIC50: −log10 of the molar value. Read-outs that look alike come from different tables or passages of the source.

Columns and labels:
[1] = test system: 22Rv1; assay: In vitro proliferation, larger panel (Example 14); type: cell-based; conditions: Homo sapiens, Table III
Source text: Results are depicted in Table III.

[2] = test system: MDA-MB-231; assay: In vitro proliferation / cytotoxic assay on breast cancer cells (Examples 14, 25); type: cell-based; conditions: Homo sapiens
Description: Data shown in Table I were fitted through sigmoidal dose response curves and analyzed using Prizm statistical.
For the cytotoxic assay, cells were seeded in 96-well flat bottom culture plates in media containing charcoal stripped serum. After 24 hours, test compounds were added to the cells. DMSO was used as the vehicle negative control and RU486 as the positive control. After 72 hour incubation, cells were harvested and lysed to determine cell viability using the Cell Titer Glow assay.

[3] = molecular target: T1, wild type AR (AR-LBD) (Rattus norvegicus, UniProt P15207); assay: Polar Screen fluorescence polarization competition assay; type: binding
T1 construct: purchased Life Technologies
T1 sequence (P15207 651-882 limits assumed): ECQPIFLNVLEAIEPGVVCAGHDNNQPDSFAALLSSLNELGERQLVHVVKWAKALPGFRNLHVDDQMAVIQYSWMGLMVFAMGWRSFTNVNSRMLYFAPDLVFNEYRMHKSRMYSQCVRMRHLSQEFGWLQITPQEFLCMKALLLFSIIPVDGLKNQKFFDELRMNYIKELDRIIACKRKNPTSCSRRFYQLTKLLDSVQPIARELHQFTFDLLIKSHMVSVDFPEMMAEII
Description: Briefly, the AR is added to a fluorescent androgen ligand (Fluormone™ AL Green) to form an AR-LBD complex. Competitors displace the fluorescent Fluormone™ AL Green ligand from the AR-LBD causing the fluorescent ligand to tumble rapidly during its fluorescence lifetime, resulting in a low polarization value. Non competitors will not displace the fluorescent ligand from the complex, so the polarization value remains high. The shift in polarization value in the presence of test compounds is used to determine relative affinity of test compounds for AR-LBD.

[4] = molecular target: T2, glucocorticoid receptor (GR) (Homo sapiens, UniProt P04150); assay: GR reporter antagonist assay (inhibition of Dexamethasone-induced luminescence); type: cell-based; conditions: inhibition of Dex-induced luminescence
T2 construct: endogenous in cells; host or cells: human kidney epithelial cells
T2 sequence (P04150 1-777): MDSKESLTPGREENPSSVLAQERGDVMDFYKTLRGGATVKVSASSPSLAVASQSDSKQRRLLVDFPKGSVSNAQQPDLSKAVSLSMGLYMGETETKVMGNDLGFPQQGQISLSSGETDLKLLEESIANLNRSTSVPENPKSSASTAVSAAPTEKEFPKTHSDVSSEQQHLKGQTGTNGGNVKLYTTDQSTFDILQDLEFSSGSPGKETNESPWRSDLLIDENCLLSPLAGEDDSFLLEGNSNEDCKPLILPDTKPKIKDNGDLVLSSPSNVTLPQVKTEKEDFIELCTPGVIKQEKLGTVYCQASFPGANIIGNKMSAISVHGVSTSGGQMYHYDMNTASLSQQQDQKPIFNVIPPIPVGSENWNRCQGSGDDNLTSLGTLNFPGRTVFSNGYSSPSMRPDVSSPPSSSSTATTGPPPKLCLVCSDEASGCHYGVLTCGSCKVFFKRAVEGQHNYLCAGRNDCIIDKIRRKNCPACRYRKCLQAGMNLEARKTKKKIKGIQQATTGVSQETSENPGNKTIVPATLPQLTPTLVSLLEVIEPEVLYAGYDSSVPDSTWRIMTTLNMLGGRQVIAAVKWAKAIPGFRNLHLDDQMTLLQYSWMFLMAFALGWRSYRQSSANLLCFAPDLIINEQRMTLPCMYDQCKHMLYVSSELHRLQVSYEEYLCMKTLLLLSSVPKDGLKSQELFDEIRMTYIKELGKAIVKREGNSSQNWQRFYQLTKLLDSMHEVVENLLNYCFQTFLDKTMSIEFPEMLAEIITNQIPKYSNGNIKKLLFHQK
Description: (§1) The androgen and glucocorticoid hormones elicit divergent and often opposing effects in cells, tissues, and animals. […] CB-03-06 GR antagonist and agonist activities were tested on an in vitro assay. Briefly, human kidney epithelial cells were transfected with DNA construct containing GR binding sites linked to luminescent based reporter molecule. After 24 hours, cells were treated under antagonist or agonist modes. After an additional 24 hours, luminescence which is proportional to GR agonist transcriptional activity was quantitated.
Antagonist Assay was based on inhibition of luminescence induced by Dexamethasone (Dex).
The antagonist activity of CB-03-06 was compared to a known GR antagonist, Mifepristone (also called RU486) as shown in FIG. 7.

[5] = molecular target: T2, glucocorticoid receptor (GR); assay: GR reporter agonist assay (induction of luminescence); type: cell-based; conditions: agonist mode
Description: as §1
Agonist Assay—was based on induction of luminescence by CB-03-06
The agonist activity of CB-03-06 was compared to a RU486 which is known to not have agonist activity.

[6] = test system: MiaPaca2; assay: Annexin V / propidium iodide apoptosis flow cytometry; type: cell-based; conditions: 24 hours, control 12%
Description: CB-03-06 was evaluated to determine if the mechanism of cytotoxicity on cancer cell lines was mediated by apoptosis and cell cycle arrest. Cancer cell lines were seeded in 6-well flat bottom plates. After 24 hours, test compounds or DMSO vehicle (negative control) were added. After an additional 24 hours, cells were scraped and stained with fluorescein conjugated Annexin V and propidium iodide, and analyzed by flow cytometry.

[7] = test system: caspases 8, 9, 3/7 in MiaPaca2 cells; assay: Caspase 8, 9 and 3/7 activity; type: cell-based
[8] = test system: caspases 8, 9, 3/7 in LNCaP cells; assay: Caspase 8, 9 and 3/7 activity; type: cell-based; conditions: 24 hour incubation, Enzalutamide positive control
Description: After 24 hours, test compounds were added to cells. Gemcitabine (a known pancreatic cancer chemotherapeutic agent) and DMSO were used as positive and negative controls, respectively. There were three incubation time points: 8 hours, 24 hours, and 48 hours. After each time point, cells were lysed in multiplex buffer containing the caspase 3/7 substrate combined with either caspase 8 or caspase 9 reagents, which contain stable luciferase in proprietary buffers. The lysates were transferred to white opaque 96-well plates before measuring luminescence on a Tecan Safire instrument. Parallel plates treated identically were used to determine cell viability. All caspase activities were corrected for the number of viable cells.
The same assay was repeated using LNCaP prostate cancer cell lines. […] The results are shown in FIG. 12 after 24 hour incubation when the caspase activities peaked.

[9] = In vitro metabolism in plasma; type: in vitro ADME; conditions: human plasma, 37 C, through 8 hours
Description: To obtain some insight on the metabolism of CB-03-06 in human and rat plasma, a specific assay was designed. Briefly, the compound was incubated at different time points in human and rat plasma at 37 C. After incubation, the samples were tested for presence of the intact compound by liquid chromatography.

[10] = In vivo pharmacokinetics in plasma; conditions: mice; for AUC: mouse, plasma
Description: The pharmacokinetic of CB-03-06 was evaluated in plasma of mice after intravenous (iv), subcutaneous (SC) and oral administration (PO).
Mice (3 per group) were administered with the following doses and blood was collected at the indicated times. Plasma samples were analyzed by HPLC-MS/MS.

[11] = test system: PSA secretion from LNCaP cells; assay: PSA secretion Elisa; type: cell-based; conditions: Homo sapiens, 48 h, read-out: inhibition of PSA secretion IC50
Description: Prostate-specific antigen, or PSA, is a protein produced by cells of the prostate gland. The PSA test measures the level of PSA in a person's blood. The blood level of PSA is often elevated in men with prostate cancer and it used as surrogate marker to test prostate cancer progression in human population. […] LNCaP cells were seeded in 96-well flat bottom culture plates in media containing charcoal stripped serum with or without 10 nM DHT. […] After 48 hours incubation with test compounds, supernatants were harvested and tested with an Elisa assay for PSA and the same cells were lysed for cell viability assessment.

SMILES: C[C@]12CCC(=O)C=C1CC[C@@H]1[C@@H]2CC[C@@]2(C)[C@H]1CC[C@]2(OC(=O)c1ccccc1)C(=O)CO [CB-03-06, cortexolone 17α-benzoate]
- pIC50 [1]: 4.60
- pIC50 ([2]; MDA-MB-231, 72 h): 4.34
- pIC50 ([2]; MDA-MB-231, read-out: in vitro proliferation IC50): 4.34
- pIC50 [3]: 5.59
- GR antagonist potency, times less than RU486 [4]: 100 times
- GR agonist activity plateau [5]: 45 % of Dex maximum
- concentration activating the GR to the same extent ([5]; CB-03-06 compared with Dex): 14 nM
- cells in apoptosis (early and late) [6]: 56 % cells
- caspase 8 and 9 activity, increase compared to the control ([7]; 20 or 50 μM, evident after 8 hours): ≤ 7 fold
- Caspase 3/7 induction ([7]; 48 hour incubation): induced by CB-03-06 at high level
- Initiator (8 and 9) and Effector (3/7) caspase activities [8]: induced Initiator (8 and 9,) and Effector (3/7) caspase activities better than Enzalutamide
- intact compound, % of initial concentration [9]: over 90%
- body exposure relative to subcutaneous administration ([10]; intravenously): 50%
- body exposure relative to subcutaneous administration ([10]; orally): 17%
- AUC ([10]; PO 40 mg/kg): 0.276 µg·h/mL
- AUC ([10]; SC 40 mg/kg): 1.62 µg·h/mL
- AUC ([10]; iv 20 mg/kg): 0.896 µg·h/mL
- pIC50 [11]: 5.40
